# Measurements from ChEMBL document CHEMBL1138171, “5-Heteroatom-substituted pyrazoles as canine COX-2 inhibitors: Part 2. Structure-activity relationship studies of 5-alkylethers and 5-thioethers” (Bioorg Med Chem Lett, 2006).
# Assays:
# Cyclooxygenase-2 = target: T1, Cyclooxygenase-2 (Canis lupus familiaris, UniProt Q8SPQ9)
# T1 sequence (Q8SPQ9 whole entry): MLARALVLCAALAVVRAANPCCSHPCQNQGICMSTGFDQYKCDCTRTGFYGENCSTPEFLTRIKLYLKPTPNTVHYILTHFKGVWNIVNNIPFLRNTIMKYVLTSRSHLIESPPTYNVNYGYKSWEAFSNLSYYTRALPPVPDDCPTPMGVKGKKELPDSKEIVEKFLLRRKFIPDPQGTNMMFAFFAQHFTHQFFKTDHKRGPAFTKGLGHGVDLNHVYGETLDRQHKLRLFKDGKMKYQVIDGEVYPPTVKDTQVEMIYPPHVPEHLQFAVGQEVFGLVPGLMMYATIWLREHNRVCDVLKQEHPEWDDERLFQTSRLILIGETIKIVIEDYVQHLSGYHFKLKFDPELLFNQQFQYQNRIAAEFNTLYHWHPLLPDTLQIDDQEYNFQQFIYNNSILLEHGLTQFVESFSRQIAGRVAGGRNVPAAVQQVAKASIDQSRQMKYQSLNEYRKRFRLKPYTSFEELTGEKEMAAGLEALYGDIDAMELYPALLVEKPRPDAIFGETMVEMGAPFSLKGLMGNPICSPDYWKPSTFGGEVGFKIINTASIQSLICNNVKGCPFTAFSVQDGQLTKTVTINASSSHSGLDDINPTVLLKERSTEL
# Description: Inhibition of COX2 by canine whole blood assay
# Canis lupus familiaris = species on record: Canis lupus familiaris; test: Selectivity for COX1 over COX2 by canine whole blood assay
# [1] = target: T2, Prostaglandin G/H synthase 1 (Canis lupus familiaris, UniProt Q8HZR1); test: Inhibition of COX1 by canine whole blood assay; type: tissue-based
# T2 sequence (Q8HZR1 whole entry): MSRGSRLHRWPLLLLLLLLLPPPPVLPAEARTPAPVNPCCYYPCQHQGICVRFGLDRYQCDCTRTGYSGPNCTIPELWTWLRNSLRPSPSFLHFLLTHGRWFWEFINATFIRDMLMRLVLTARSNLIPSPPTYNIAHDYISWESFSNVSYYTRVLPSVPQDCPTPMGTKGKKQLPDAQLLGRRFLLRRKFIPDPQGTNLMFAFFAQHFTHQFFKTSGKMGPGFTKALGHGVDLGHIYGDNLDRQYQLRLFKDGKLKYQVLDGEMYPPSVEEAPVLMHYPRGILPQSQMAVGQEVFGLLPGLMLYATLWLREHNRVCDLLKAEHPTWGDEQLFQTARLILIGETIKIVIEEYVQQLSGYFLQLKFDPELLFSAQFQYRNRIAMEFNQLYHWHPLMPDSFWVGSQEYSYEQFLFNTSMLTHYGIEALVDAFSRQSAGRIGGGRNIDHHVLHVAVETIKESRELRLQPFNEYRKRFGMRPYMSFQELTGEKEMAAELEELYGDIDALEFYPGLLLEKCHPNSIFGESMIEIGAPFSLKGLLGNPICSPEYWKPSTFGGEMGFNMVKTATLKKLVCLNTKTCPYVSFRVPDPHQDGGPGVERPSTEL
# Canis familiaris [2] = test: AUC in Beagle dog at 2 mg/kg, po; type: ADME, organism-based, Canis lupus familiaris, Plasma; parameters: dose 2 mg/kg, route oral; details: in vivo
# [3] = Cmax in Beagle dog at 2 mg/kg, po; type: ADME, organism-based, Canis lupus familiaris; parameters: dose 2 mg/kg, route oral; details: in vivo
# [4] = Tmax in Beagle dog at 2 mg/kg, po; type: ADME, organism-based, Canis lupus familiaris; parameters: dose 2 mg/kg, route oral; details: in vivo
# [5] = Half life in Beagle dog at 2 mg/kg, po; type: ADME, organism-based, Canis lupus familiaris; parameters: dose 2 mg/kg, route oral; details: in vivo
# [6] = Cmax in Beagle dog at 5 mg/kg, po; type: ADME, organism-based, Canis lupus familiaris; parameters: dose 5 mg/kg, route oral; details: in vivo
# [7] = Tmax in Beagle dog at 5 mg/kg, po; type: ADME, organism-based, Canis lupus familiaris; parameters: dose 5 mg/kg, route oral; details: in vivo
# [8] = Half life in Beagle dog at 5 mg/kg, po; type: ADME, organism-based, Canis lupus familiaris; parameters: dose 5 mg/kg, route oral; details: in vivo
# Canis familiaris [9] = species on record: Canis familiaris; details: dog, in vivo, po, 5 mg/kg
# Description: AUC in Beagle dog at 5 mg/kg, po
Compound,IC50 (Cyclooxygenase-2),Ratio (Canis lupus familiaris),IC50 [1],other results
CCC(CC)Oc1cc(C(F)(F)F)nn1-c1ccc(S(C)(=O)=O)cn1,19600 nM,,,
CCC(CC)Oc1c(C#N)c(C(F)(F)F)nn1-c1ccc(S(C)(=O)=O)cn1,< 500 nM,,,
CS(=O)(=O)c1ccc(-n2nc(C(F)(F)F)cc2OCc2ccncc2)nc1,> 500 nM,,,
CS(=O)(=O)c1ccc(-n2nc(C(F)(F)F)cc2OC2CCCC2)nc1,> 500 nM,,,
CCCSc1c(C#N)c(C(F)(F)F)nn1-c1ccc(S(C)(=O)=O)cn1,< 50 nM,> 3.8,200 nM,
CS(=O)(=O)c1ccc(-n2nc(C(F)(F)F)c(C#N)c2SCc2ccccc2F)nc1,40 nM,18.4,600 nM,
CCCC(C)Oc1c(C#N)c(C(F)(F)F)nn1-c1ccc(S(C)(=O)=O)cn1 (stereo not drawn),> 500 nM,,,
Cc1c(C(F)(F)F)nn(-c2ccc(S(C)(=O)=O)cn2)c1OCC(C)C,> 500 nM,,,
CC(C)COc1c(C#N)c(C(F)(F)F)nn1-c1ccc(S(C)(=O)=O)cn1,110 nM,92,10000 nM,
CS(=O)(=O)c1ccc(-n2nc(C(F)(F)F)c(C#N)c2Oc2cccc3c2CCCC3)nc1,900 nM,0.1,100 nM,
Cc1cccc(Oc2c(C#N)c(C(F)(F)F)nn2-c2ccc(S(C)(=O)=O)cn2)c1C,170 nM,0.3,100 nM,
C[C@@H]1CN(c2c(C#N)c(C(F)F)nn2-c2ccc(S(C)(=O)=O)cn2)C[C@H](C)O1,140 nM,> 357,> 50000 nM,AUC (Canis familiaris [2]): 4830 ng·h/mL
CC(C)Oc1c(Cl)c(C(F)(F)F)nn1-c1ccc(S(C)(=O)=O)cn1,> 500 nM,,,
CC(C)C(C)Oc1c(C#N)c(C(F)(F)F)nn1-c1ccc(S(C)(=O)=O)cn1 (stereo not drawn),90 nM,127,11800 nM,
CC1CCC(Oc2c(C#N)c(C(F)(F)F)nn2-c2ccc(S(C)(=O)=O)cn2)C1 (stereo not drawn),160 nM,47,7600 nM,
C=C1CCC(COc2c(C#N)c(C(F)(F)F)nn2-c2ccc(S(C)(=O)=O)cn2)CC1,< 90 nM,340,29700 nM,
Cc1c(C(F)(F)F)nn(-c2ccc(S(C)(=O)=O)cn2)c1OC(C)C,> 500 nM,,,
CCC(CC)Oc1c(C)c(C(F)(F)F)nn1-c1ccc(S(C)(=O)=O)cn1,> 500 nM,,,
CS(=O)(=O)c1ccc(-n2nc(C(F)(F)F)cc2OC2CCCCC2)nc1,> 500 nM,,,
CC1CCCCC1Oc1c(C#N)c(C(F)(F)F)nn1-c1ccc(S(C)(=O)=O)cn1 (stereo not drawn),200 nM,35,7100 nM,
CS(=O)(=O)c1ccc(-n2nc(C(F)(F)F)cc2OCC2CC2)nc1,> 500 nM,,,
CCC(Oc1c(C#N)c(C(F)(F)F)nn1-c1ccc(S(C)(=O)=O)cn1)C(C)C (stereo not drawn),170 nM,> 287,> 50000 nM,
CS(=O)(=O)c1ccc(-n2nc(C(F)(F)F)c(C#N)c2OCC2CCC2)nc1,80 nM,,,
CS(=O)(=O)c1ccc(-n2nc(C(F)(F)F)cc2OCc2cccc3ccccc23)nc1,> 500 nM,,,
CCC(COC)Oc1c(C#N)c(C(F)(F)F)nn1-c1ccc(S(C)(=O)=O)cn1 (stereo not drawn),> 500 nM,,,
CCCCOc1cc(C(F)(F)F)nn1-c1ccc(S(C)(=O)=O)cn1,> 500 nM,,,
CS(=O)(=O)c1ccc(-n2nc(C(F)(F)F)c(C#N)c2SC2CCCCC2)nc1,100 nM,31.2,3200 nM,
CC(C)Oc1cc(C(F)(F)F)nn1-c1ccc(S(C)(=O)=O)cn1,> 500 nM,,,Cmax [6]: 679 ng/mL; Tmax [7]: 0.8 h; half-life [8]: 34.8 h; AUC (Canis familiaris [9]): 6980 ng·h/mL

# More lines, main results first:
IC50 (Cyclooxygenase-2),Ratio (Canis lupus familiaris),IC50 [1],Compound,other results
60 nM,6.8,400 nM,CS(=O)(=O)c1ccc(-n2nc(C(F)(F)F)c(C#N)c2OCC2CCCC2)nc1,
80 nM,12.1,900 nM,CS(=O)(=O)c1ccc(-n2nc(C(F)(F)F)c(C#N)c2SCc2ccccc2)nc1,
550 nM,46.3,25300 nM,CS(=O)(=O)c1ccc(-n2nc(C(F)(F)F)c(C#N)c2OC2CCC2)nc1,
> 500 nM,,,CS(=O)(=O)c1ccc(-n2nc(C(F)(F)F)c(C#N)c2OC2CCOC2)nc1 (stereo not drawn),
> 500 nM,,,CS(=O)(=O)c1ccc(-n2nc(C(F)(F)F)cc2OCc2cccc(F)c2)nc1,
60 nM,3.6,200 nM,CS(=O)(=O)c1ccc(-n2nc(C(F)(F)F)c(C#N)c2Sc2ccccc2)nc1,
140 nM,78,10600 nM,CS(=O)(=O)c1ccc(-n2nc(C(F)(F)F)c(C#N)c2OCC2CC=CCC2)nc1 (stereo not drawn),Cmax [3]: 363 ng/mL; Tmax [4]: 1 h; AUC (Canis familiaris [2]): 742 ng·h/mL; half-life [5]: 2 h
400 nM,8.1,3300 nM,CC(C)CCCSc1c(C#N)c(C(F)(F)F)nn1-c1ccc(S(C)(=O)=O)cn1,
70 nM,117,8000 nM,CS(=O)(=O)c1ccc(-n2nc(C(F)(F)F)c(C#N)c2OC2CCCCCC2)nc1,
> 500 nM,,,CS(=O)(=O)c1ccc(-n2nc(C(F)(F)F)c(C#N)c2Oc2ccccc2)nc1,
170 nM,11.8,2000 nM,CCOCCSc1c(C#N)c(C(F)(F)F)nn1-c1ccc(S(C)(=O)=O)cn1,
210 nM,,,CS(=O)(=O)c1ccc(-n2nc(C(F)(F)F)c(C#N)c2OC2CCCC2)nc1,
300 nM,11.7,3500 nM,CCCCCSc1c(C#N)c(C(F)(F)F)nn1-c1ccc(S(C)(=O)=O)cn1,
> 500 nM,,,COc1cc(C(F)(F)F)nn1-c1ccc(S(C)(=O)=O)cn1,
< 50 nM,> 29.5,1500 nM,CCC(C)Sc1c(C#N)c(C(F)(F)F)nn1-c1ccc(S(C)(=O)=O)cn1 (stereo not drawn),
4100 nM,,,CC(C)COc1cc(C(F)(F)F)nn1-c1ccc(S(C)(=O)=O)cn1,
> 500 nM,,,CS(=O)(=O)c1ccc(-n2nc(C(F)(F)F)cc2OCc2ccccc2)nc1,
